According to ChEMBL document CHEMBL6127057, “Design and synthesis of Thieno[3, 2-b]pyridinone derivatives exhibiting potent activities against Mycobacterium tuberculosis in vivo by targeting Enoyl-ACP reductase” (Eur J Med Chem, 2024):
≈ marks a conversion by molar mass, not a printed value. Calls of active or inactive are those of the source. No cut-off for these calls is given here.

Key:
[1] = system: Escherichia coli; assay: Antibacterial activity against Escherichia coli assessed as bacterial growth inhibition incubated for 24 hrs; type: functional
[2] = system: Candida albicans; assay: Antifungal activity against Candida albicans assessed as fungal growth inhibition incubated for 48 hrs; type: functional
[3] = system: Staphylococcus aureus; assay: Antibacterial activity against Staphylococcus aureus assessed as bacterial growth inhibition incubated for 24 hrs; type: functional
[4] = system: Cryptococcus neoformans; assay: Antifungal activity against Cryptococcus neoformans assessed as fungal growth inhibition incubated for 72 hrs; type: functional
[5] = system: Mycobacterium tuberculosis; assay: Antimycobacterial activity against marker-free avirulent autoluminescent Mycobacterium tuberculosis H37Ra assessed as inhibition of relative light unit relative to control; type: functional
[6] = system: Mycobacterium tuberculosis; assay: Antimycobacterial activity against Mycobacterium tuberculosis H37Rv assessed as inhibition of growth by kill kinetic analysis; type: functional
[7] = system: Mycobacterium tuberculosis; assay: Antimycobacterial activity against wild-type Mycobacterium tuberculosis H37Rv incubated for 4 weeks by MABA assay; type: functional; conditions: 672 h
[8] = target: T1, Enoyl-[acyl-carrier-protein] reductase [NADH] (Mycobacterium tuberculosis) (UniProt P9WGR1); assay: Inhibition of C-terminal his-tagged Mycobacterium tuberculosis InhA extracted from Escherichia coli BL21(DE3) cells using trans-2-dodecenoyl-coenzyme A as substrate at 25 microM by UV based analysis
T1 sequence (whole entry): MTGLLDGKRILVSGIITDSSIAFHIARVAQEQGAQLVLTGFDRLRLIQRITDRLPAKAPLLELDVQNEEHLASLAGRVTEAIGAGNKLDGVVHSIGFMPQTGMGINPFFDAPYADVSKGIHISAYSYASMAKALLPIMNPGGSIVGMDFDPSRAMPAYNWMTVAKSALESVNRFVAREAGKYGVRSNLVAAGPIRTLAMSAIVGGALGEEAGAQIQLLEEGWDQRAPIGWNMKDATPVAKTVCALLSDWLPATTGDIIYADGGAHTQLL

[9] = system: Mycobacterium tuberculosis; assay: Antimycobacterial activity against Mycobacterium tuberculosis UAlRv infection model using mouse RAW264.7 cells assessed as inhibition of bacterial growth incubated for 72 hrs; type: functional
[10] = system: L02; assay: Cytotoxicity against human L02 cells incubated for 48 hrs by CCK-8 assay; type: toxicity, cell-based; conditions: l02, 48 h
[11] = Half life in male Sprague-Dawley rat at 100 mg/kg, po measured upto 240 hrs by LC/MS/MS analysis; type: ADME, organism-based; conditions: in vivo
[12] = Tmax in male Sprague-Dawley rat at 100 mg/kg, po measured upto 240 hrs by LC/MS/MS analysis; type: ADME, organism-based; conditions: in vivo
[13] = Cmax in male Sprague-Dawley rat at 100 mg/kg, po measured upto 240 hrs by LC/MS/MS analysis; type: ADME, organism-based; conditions: in vivo
[14] = system: Mycobacterium tuberculosis; assay: Antimycobacterial activity against Mycobacterium tuberculosis H37Rv infected in female BALB/c mouse assessed as reduction in relative light unit in lung at 300 mg/kg, po administered once daily for 5 days; type: functional; conditions: time 5 day
[15] = system: Mycobacterium tuberculosis; assay: Antimycobacterial activity against Mycobacterium tuberculosis H37Rv infected in female BALB/c mouse assessed as reduction in relative light unit in lung at 100 mg/kg, po in presence of Rifampicin administered once daily for 5 days; type: functional; conditions: time 5 day
[16] = AUC (0 to infinity) in male Sprague-Dawley rat at 1 mg/kg, iv measured upto 240 hrs by LC/MS/MS analysis; type: ADME, organism-based; conditions: in vivo
[17] = system: Mycobacterium tuberculosis; assay: Antimycobacterial activity against Mycobacterium tuberculosis H37Rv infected in female BALB/c mouse assessed as reduction in relative light unit in spleen at 300 mg/kg, po administered once daily for 5 days; type: functional; conditions: time 5 day
[18] = system: Mycobacterium tuberculosis; assay: Antimycobacterial activity against Mycobacterium tuberculosis H37Rv infected in female BALB/c mouse assessed as reduction in relative light unit in lung at 30 mg/kg, po in presence of Rifampicin administered once daily for 5 days; type: functional; conditions: time 5 day
[19] = Half life in male Sprague-Dawley rat at 1 mg/kg, iv measured upto 240 hrs by LC/MS/MS analysis; type: ADME, organism-based; conditions: in vivo
[20] = Toxicity in BALB/c mouse infected with Mycobacterium tuberculosis H37Rv assessed as optimal condition at 300 mg/kg, po administered once daily for 5 days; type: organism-based; conditions: in vivo, 120 h, time 5 day
[21] = Oral bioavailability in male Sprague-Dawley rat at 100 mg/kg measured upto 240 hrs by LC/MS/MS analysis; type: ADME, organism-based; conditions: in vivo
[22] = system: Mycolicibacterium smegmatis; assay: Selectivity ratio of MIC for recombinant Mycobacterium smegmatis transfected with pMV261-Mtb InhA to MIC for recombinant Mycobacterium smegmatis transfected with pMV261; type: functional
[23] = AUC (0 to infinity) in male Sprague-Dawley rat at 100 mg/kg, po measured upto 240 hrs by LC/MS/MS analysis; type: ADME, organism-based; conditions: in vivo
[24] = system: Mycobacterium tuberculosis; assay: Antimycobacterial activity against Mycobacterium tuberculosis H37Rv infected in female BALB/c mouse assessed as reduction in relative light unit in lung at 100 mg/kg, po administered once daily for 5 days; type: functional; conditions: time 5 day
[25] = system: Mycolicibacterium smegmatis; assay: Antimycobacterial activity against recombinant Mycobacterium smegmatis transfected with pMV261 assessed as inhibition of bacterial growth at 0.25 to 64 microg/ml incubated for 3 days; type: functional; conditions: 72 h, dose 0.25-64 µg/ml, time 3 day
[26] = system: Mycolicibacterium smegmatis; assay: Antimycobacterial activity against recombinant Mycobacterium smegmatis transfected with pMV261-Mtb InhA assessed as inhibition of bacterial growth at 0.25 to 64 microg/ml incubated for 3 days; type: functional; conditions: 72 h, dose 0.25-64 µg/ml, time 3 day
[27] = system: Mycobacterium tuberculosis; assay: Antimycobacterial activity against Mycobacterium tuberculosis H37Rv infected in female BALB/c mouse assessed as reduction in relative light unit in lung, po administered once daily for 5 days; type: functional, organism-based; conditions: dose 30-300 mg/kg, time 5.0 day

## Cc1ccccc1-c1c(O)c2scc(Br)c2[nH]c1=O
[1]
  MIC99: > 64 µg/mL
[2]
  MIC80: > 64 µg/mL
[3]
  MIC99: > 64 µg/mL
[4]
  MIC80: > 64 µg/mL
[5]
  MIC90: 0.5 µg/mL (≈ 1.49 µM)

## Cc1ccc(C)c(-c2c(O)c3scc(Br)c3[nH]c2=O)c1
[5]
  MIC90: 32 µg/mL (≈ 91.4 µM)

## O=c1[nH]c2c(Br)csc2c(O)c1-c1cccc(F)c1
[1]
  MIC99: > 64 µg/mL
[2]
  MIC80: > 64 µg/mL
[3]
  MIC99: > 64 µg/mL
[4]
  MIC80: > 64 µg/mL
[5]
  MIC90: 0.5 µg/mL (≈ 1.47 µM)

## O=c1[nH]c2c(Br)csc2c(O)c1-c1ccc(Cl)cc1
[5]
  MIC90: > 64 µg/mL

## CC(=O)Oc1c(-c2ccccc2)c(=O)n(C(C)=O)c2c(Br)csc12
[5]
  MIC90: 4 µg/mL (≈ 9.85 µM)

## NNC(=O)c1ccncc1 [ISONIAZID]
[6]
  MIC50: 0.33 µM (≈ 0.0453 µg/mL)
[7]
  MIC: 0.03 µg/mL (≈ 0.219 µM)

## O=c1[nH]c2c(Br)csc2c(O)c1-c1ccc(Br)cc1
[5]
  MIC90: 16 µg/mL (≈ 39.9 µM)

## COc1cccc(-c2c(O)c3scc(Br)c3[nH]c2=O)c1
[5]
  MIC90: 8 µg/mL (≈ 22.7 µM)

## O=c1[nH]c2c(Br)csc2c(O)c1-c1cccc([N+](=O)[O-])c1
[5]
  MIC90: > 64 µg/mL

## O=c1[nH]c2c(Br)csc2c(O)c1-c1ccc([N+](=O)[O-])cc1
[5]
  MIC90: 32 µg/mL (≈ 87.2 µM)

## O=c1[nH]c2c(Br)csc2c(O)c1-c1ccco1
[5]
  MIC90: 8 µg/mL (≈ 25.6 µM)

## O=c1[nH]c2c(Br)csc2c(O)c1-c1ccc(Cl)cc1Cl
[5]
  MIC90: > 64 µg/mL

## Cc1csc2c(O)c(-c3ccccc3)c(=O)[nH]c12
[5]
  MIC90: 4 µg/mL (≈ 15.5 µM)

## N#Cc1ccc(-c2c(O)c3scc(Br)c3[nH]c2=O)cc1
[5]
  MIC90: 32 µg/mL (≈ 92.2 µM)

## CC1(C)CCC(Cc2cc(O)c(-c3ccccc3)c(=O)[nH]2)CC1
[6]
  MIC50: 0.05 µM (≈ 0.0156 µg/mL)

## O=c1[nH]c2c(Br)csc2c(O)c1-c1ccc2ccccc2c1
[5]
  MIC90: 16 µg/mL (≈ 43 µM)

## CO[C@H]1/C=C/O[C@@]2(C)Oc3c(C)c(O)c4c(O)c(c(/C=N/N5CCN(C)CC5)c(O)c4c3C2=O)NC(=O)/C(C)=C\C=C\[C@H](C)[C@H](O)[C@@H](C)[C@@H](O)[C@@H](C)[C@H](OC(C)=O)[C@@H]1C [RIFAMPIN]
[7]
  MIC: 0.125 µg/mL (≈ 0.152 µM)
[5]
  MIC90: 0.25 µg/mL (≈ 0.304 µM)

## CC1(C)S[C@@H]2[C@H](NC(=O)[C@H](N)c3ccc(O)cc3)C(=O)N2[C@H]1C(=O)O [AMOXICILLIN]
[1]
  MIC99: 0.05 µg/mL (≈ 0.137 µM)
[3]
  MIC99: 0.5 µg/mL (≈ 1.37 µM)

## CC(C)(C)c1ccc(-c2c(O)c3scc(Br)c3[nH]c2=O)cc1
[5]
  MIC90: > 64 µg/mL

## O=c1[nH]c2c(Br)csc2c(O)c1-c1cccc(Cl)c1
[1]
  MIC99: > 64 µg/mL
[8]
  inhibition: Active
[9]
  MIC90: 1 µg/mL (≈ 2.8 µM)
[10]
  Activity: Toxic
[3]
  MIC99: > 64 µg/mL
[5]
  MIC90: 0.5 µg/mL (≈ 1.4 µM)

## Cc1cccc(-c2c(O)c3scc(Br)c3[nH]c2=O)c1
[1]
  MIC99: > 64 µg/mL
[8]
  inhibition: Active
[11]
  half-life: 48 h
[12]
  Tmax: 6 h
[9]
  MIC90: 1 µg/mL (≈ 2.97 µM)
[2]
  MIC80: > 64 µg/mL
[13]
  Cmax: 283 µM
[14]
  Activity: 0.64 log10RLU
[15]
  Activity: 5.31 log10RLU
[10]
  Activity: Toxic
[16]
  AUC: 1200 µM·h
[17]
  Activity: 0.37 log10RLU
[18]
  Activity: 0.29 log10RLU
[19]
  half-life: 35.6 h
[20]
  Activity: Non-Toxic
[21]
  bioavailability: 16.4%
[7]
  MIC: 0.5 µg/mL (≈ 1.49 µM)
[3]
  MIC99: > 64 µg/mL
[22]
  Selectivity ratio: 2
[23]
  AUC: 19700 µM·h
[24]
  Activity: 4.93 log10RLU
[25]
  MIC: 1 µg/mL
[4]
  MIC80: > 64 µg/mL
[26]
  MIC: 4 µg/mL
[27]
  Activity: Dose-Dependent Effect
[5]
  MIC90: 0.5 µg/mL (≈ 1.49 µM)

## C[C@@H]1[C@H](O)[C@@H](C)/C=C/C=C/C=C/C=C/C=C/C=C/C=C/[C@H](O[C@@H]2O[C@H](C)[C@@H](O)[C@H](N)[C@@H]2O)C[C@@H]2O[C@](O)(C[C@@H](O)C[C@@H](O)[C@H](O)CC[C@@H](O)C[C@@H](O)CC(=O)O[C@H]1C)C[C@H](O)[C@H]2C(=O)O [AMPHOTERICIN B]
[2]
  MIC80: 0.125 µg/mL (≈ 0.135 µM)
[4]
  MIC80: 0.5 µg/mL (≈ 0.541 µM)

## O=c1[nH]c2c(Br)csc2c(O)c1-c1ccccc1Cl
[5]
  MIC90: 1 µg/mL (≈ 2.8 µM)

## O=c1[nH]c2c(Br)csc2c(O)c1-c1cccc(Br)c1
[5]
  MIC90: 16 µg/mL (≈ 39.9 µM)

## O=c1[nH]c2c(Br)csc2c(O)c1-c1ccccc1
[1]
  MIC99: > 64 µg/mL
[3]
  MIC99: > 64 µg/mL
[5]
  MIC90: 0.5 µg/mL (≈ 1.55 µM)

## O=c1[nH]c2c(Br)csc2c(O)c1-c1ccc(C(F)(F)F)cc1
[5]
  MIC90: 16 µg/mL (≈ 41 µM)

## O=c1[nH]c2c(Br)csc2c(O)c1-c1ccc(Cl)cc1F
[5]
  MIC90: 16 µg/mL (≈ 42.7 µM)

## O=c1[nH]c2c(Br)csc2c(O)c1-c1ccccc1F
[1]
  MIC99: > 64 µg/mL
[2]
  MIC80: > 64 µg/mL
[3]
  MIC99: > 64 µg/mL
[4]
  MIC80: > 64 µg/mL
[5]
  MIC90: 0.5 µg/mL (≈ 1.47 µM)

## COc1ccc(-c2c(O)c3scc(Br)c3[nH]c2=O)cc1
[5]
  MIC90: 16 µg/mL (≈ 45.4 µM)

## N#Cc1cccc(-c2c(O)c3scc(Br)c3[nH]c2=O)c1
[5]
  MIC90: > 64 µg/mL

## Cc1ccc(-c2c(O)c3scc(Br)c3[nH]c2=O)cc1
[5]
  MIC90: 32 µg/mL (≈ 95.2 µM)

## O=c1[nH]c2c(Br)csc2c(O)c1-c1cccc(OC(F)(F)F)c1
[5]
  MIC90: > 64 µg/mL

## O=c1[nH]c2c(Br)csc2c(O)c1-c1ccc(F)cc1
[5]
  MIC90: 2 µg/mL (≈ 5.88 µM)

## O=c1[nH]c2c(Br)csc2c(O)c1-c1cccs1
[5]
  MIC90: 4 µg/mL (≈ 12.2 µM)

## O=c1[nH]c2c(Br)csc2c(O)c1-c1cccc(Oc2ccccc2)c1
[5]
  MIC90: 32 µg/mL (≈ 77.2 µM)
